These are literature values, as cited in patent US20160000732A1, “ORAL PHARMACEUTICAL COMPOSITIONS OF OSPEMIFENE” (CADILA HEALTHCARE LIMITED, priority 2014, published 2016).

For data set [1] the following is noted: classical hormonal tests, Kangas 1990.
The conditions of data set [2]: experimental models and human volunteers; WO 1996/07402, WO 1997/32574.

Consider `OCCOc1ccc(/C(=C(/CCCl)c2ccccc2)c2ccccc2)cc1` [Ospemifene, 2-[4-(4-chloro-1,2-diphenylbut-1-enyl)phenoxy]ethanol], for which, in data set [1], the “estrogenic and antiestrogenic effects” value was “relatively weak”. The “total and LDL cholesterol levels” value in data set [2] is given as “decreases”.
